Like-named read-outs stand apart in the source and are kept apart here. Square brackets hold non-standard residues; d marks the D form. Ends that are not written are not given here. Peptide text beside a SMILES is read from it. hTyr = N[C@@H](CCc1ccc(O)cc1)C(=O)O
Key:
Solubility (qualitative) = type: physicochemical; conditions: qualitative statement
[1] = system: SARS-CoV-2 clinical isolate SARS-CoV-2/PSL2020 in Calu-3 cells; conditions: clinical isolate /PSL2020 in Calu-3 cells, 48 h
[2] = system: SARS-CoV-2 clinical isolate SARS-CoV-2/PSL2020 in Vero-E6 cells; conditions: for % Inhibition of SARSCoV-2 replication at 10 μM: mean of at least three independent experiments; for % Inhibition, Moyenne / % Inhibition, Q2 (Median): clinical isolate /PSL2020 in Vero-E6 cells, 48 h, 10 µM
[3] = Helical content by circular dichroism; type: physicochemical; conditions: 60 µM peptide, 50 mM sodium phosphate buffer pH 7.4, 25 °C, DichroWeb CDSSTR deconvolution
Text: The conformation of synthesized peptides in aqueous solution was investigated by circular dichroism (CD) spectroscopy. […] The deconvolution of the CD spectra using DichroWeb[25] allowed us to estimate the helical population for each peptide, which is reported in Table 1. Overall, an excellent agreement was observed between the Agadir-computed values and the experimental helical population inferred from CD data. […] The introduction of a proline residue in peptide P5 has a strong destabilizing effect on helical conformation (17%) whereas Leu/hTyr substitution only led to a slight decrease of the helical content (P7 versus P6 and P10 versus P8).
Fig. 2 Far-UV CD spectra of synthesized peptides. […] CD measurements are reported as molar ellipticity per residue.
CD spectra were recorded on a Jasco J-815 CD spectropolarimeter equipped with a Peltier temperature controller. Data were obtained at 25 °C over a wavelength range between 185 nm and 270 nm, using a wavelength interval of 0.2 nm and a scan rate of 20 nm min^−1. Peptide samples were prepared at a concentration of 60 µM in 50 mM sodium phosphate buffer, pH 7.4, in a quartz cell of 1 mm path length. CD experiments were processed and plotted with R program. CD spectra were analyzed using DICHROWEB web server and CDSSTR deconvolution algorithm.

[4] = HPLC retention time (LC-MS method B); type: physicochemical; conditions: method B: X-Select CSH C18 XP, 0.1% formic acid water/acetonitrile, 5-100% B in 3.2 min, 1.8 mL min^−1, 40 °C; used as indicator of hydrophobicity
Calu-3 cells [5] = system: Calu-3 cells
Calu-3 cells [6] = conditions: 10 μM (150 times the IC50); MTT and annexin-V/PI, 24, 48 or 72 h (Fig. 3f)
[7] = biological target: SARS-CoV-2 spike RBD (Fc-tagged 2019-nCoV RBD-SD1) (Severe acute respiratory syndrome coronavirus 2, UniProt P0DTC2); experiment: biochemical; type: binding; conditions: for kon: read-out: ka, association constant; for koff: read-out: kdis, dissociation constant
Vero-E6 cells [8] = conditions: 10 µM
Vero-E6 cells [9] = conditions: for Cell viability (MTT): 72 h; for toxicity in Vero-E6: MTT 0.1-10 µM and annexin-V/PI 10 µM, 24, 48 or 72 h (Fig. 3c)
[10] = system: SARS-CoV-2 clinical isolate SARS-CoV-2/PSL2020 in Calu-3 cells; type: cell-based
[11] = EXP1, peptide 10 µM, 24 h (0 µM: 16%)
[12] = EXP1, peptide 10 µM, 48 h (0 µM: 18%)
[13] = EXP1, peptide 10 µM, 72 h (0 µM: 23%)
[14] = EXP2, peptide 10 µM, 24 h (0 µM: 13%)
[15] = EXP2, peptide 10 µM, 48 h (0 µM: 17%)
[16] = EXP2, peptide 10 µM, 72 h (0 µM: 20%)
[17] = EXP3, peptide 10 µM, 24 h (Vehicle: 15%)
[18] = EXP3, peptide 10 µM, 48 h (Vehicle: 18%)
[19] = EXP3, peptide 10 µM, 72 h (Vehicle: 22%)
[20] = BLI EXP1, sample conc. ACE2 10 nM, P8 100 nM, P9 and P10 1000 nM
[21] = BLI EXP2, sample conc. ACE2 100 nM, P8 1000 nM, P9 and P10 1111 nM
[22] = BLI EXP3, sample conc. ACE2 100 nM, P9 10000 nM, P10 1000 nM

| Compound | solubility (Solubility (qualitative)) | IC50 [1] [nM] | % Inhibition of SARSCoV-2 replication at 10 μM [2] [%] | % Inhibition, Moyenne [2] [%] | % Inhibition, Q2 (Median) [2] [%] | Experimental helical content% [3] [%] | RT, HPLC retention time [4] | Cell death (AnnV+PI) (Calu-3 cells [5]; [11]) [%] | Cell death (AnnV+PI) (Calu-3 cells [5]; [12]) [%] | Cell death (AnnV+PI) (Calu-3 cells [5]; [13]) [%] | Cell death (AnnV+PI) (Calu-3 cells [5]; [14]) [%] | Cell death (AnnV+PI) (Calu-3 cells [5]; [15]) [%] | Cell death (AnnV+PI) (Calu-3 cells [5]; [16]) [%] | Cell death (AnnV+PI) (Calu-3 cells [5]; [17]) [%] | Cell death (AnnV+PI) (Calu-3 cells [5]; [18]) [%] | Cell death (AnnV+PI) (Calu-3 cells [5]; [19]) [%] | cytotoxicity in uninfected Calu-3 cells (Calu-3 cells [6]) | kon [7, 20] [M⁻¹ s⁻¹] | koff [7, 20] [s⁻¹] | kon [7, 21] [M⁻¹ s⁻¹] | further results |
| --- | --- | --- | --- | --- | --- | --- | --- | --- | --- | --- | --- | --- | --- | --- | --- | --- | --- | --- | --- | --- | --- |
| CC(C)C[C@H](NC(=O)[C@H](C)NC(=O)[C@H](CC(C)C)NC(=O)[C@H](C)NC(=O)[C@H](CC(C)C)NC(=O)[C@H](CCC(N)=O)NC(=O)[C@H](Cc1ccc(O)cc1)NC(=O)[C@H](CC(C)C)NC(=O)[C@H](CC(C)C)NC(=O)[C@H](CC(=O)O)NC(=O)[C@H](CCC(=O)O)NC(=O)[C@H](CC(C)C)NC(=O)[C@H](CCC(=O)O)NC(=O)[C@H](Cc1c[nH]cn1)NC(=O)[C@H](CC(C)C)NC(=O)[C@H](Cc1ccccc1)NC(=O)[C@H](CCCCN)NC(=O)[C@H](CC(=O)O)NC(=O)[C@H](CC(C)C)NC(=O)[C@H](Cc1ccccc1)NC(=O)[C@@H](NC(=O)[C@H](CCCCN)NC(=O)[C@H](CCc1ccc(O)cc1)NC(=O)[C@H](CCC(N)=O)NC(=O)[C@H](CCC(=O)O)NC(=O)[C@H](CCC(=O)O)NC(=O)[C@H](CC(C)C)NC(=O)[C@H](C)NC(=O)[C@@H](N)CO)[C@@H](C)O)C(N)=O [P7] (H-SALEEQ[hTyr]KTFLDKFLHELEDLLYQLALAL-NH2) | slight increase in solubility | > 1000 | 54 | 53.7 | 43.4 | 63 | 2,57 min | – | – | – | – | – | – | – | – | – | – | – | – | – | – |
| CSCC[C@H](NC(=O)[C@H](Cc1ccccc1)NC(=O)[C@H](CCCCN)NC(=O)[C@H](CC(=O)O)NC(=O)[C@H](CC(C)C)NC(=O)[C@H](Cc1ccccc1)NC(=O)[C@@H](NC(=O)[C@H](CCCCN)NC(=O)[C@H](CCc1ccc(O)cc1)NC(=O)[C@H](CCC(N)=O)NC(=O)[C@H](CCC(=O)O)NC(=O)[C@H](CCC(=O)O)NC(=O)[C@H](CC(C)C)NC(=O)[C@H](C)NC(=O)[C@@H](N)CO)[C@@H](C)O)C(=O)N[C@@H](Cc1c[nH]cn1)C(=O)N[C@@H](CCC(=O)O)C(=O)N[C@@H](CC(C)C)C(=O)N[C@@H](CCC(=O)O)C(=O)N[C@@H](CC(=O)O)C(=O)N[C@@H](CC(C)C)C(=O)N[C@@H](CC(C)C)C(=O)N[C@@H](Cc1ccc(O)cc1)C(=O)N[C@@H](CCC(N)=O)C(=O)N[C@@H](CC(C)C)C(=O)N[C@@H](C)C(=O)N[C@@H](CC(C)C)C(N)=O [P10] (H-SALEEQ[hTyr]KTFLDKFMHELEDLLYQLAL-NH2) | – | 42 | 95 | 95.1 | 95.1 | 56 | 2,34 min | 23 | 19 | 23 | 17 | 20 | 22 | 19 | 19 | 19 | no cytotoxicity | 2490 | < 1e-07 | 1410 | koff [7, 21]: < 1e-07 s⁻¹; kon [7, 22]: 1430 M⁻¹ s⁻¹; koff [7, 22]: < 1e-07 s⁻¹; Kd ([7]; Table 1 of the earlier manuscript version, quoted by Reviewer #2, superseded): < 1 nM; Cell death (AnnV+PI) (Vero-E6 cells [8]; 24 h, EXP1, flow cytometry): 4%; Cell death (AnnV+PI) (Vero-E6 cells [8]; 24 h, EXP2, flow cytometry): 5.38%; Cell death (AnnV+PI) (Vero-E6 cells [8]; 24 h, EXP3, flow cytometry): 5.49%; Cell death (AnnV+PI) (Vero-E6 cells [8]; 48 h, EXP1, flow cytometry): 7%; Cell death (AnnV+PI) (Vero-E6 cells [8]; 48 h, EXP2, flow cytometry): 5.69%; Cell death (AnnV+PI) (Vero-E6 cells [8]; 48 h, EXP3, flow cytometry): 6.33%; Cell death (AnnV+PI) (Vero-E6 cells [8]; 72 h, EXP1, flow cytometry): 4%; Cell death (AnnV+PI) (Vero-E6 cells [8]; 72 h, EXP2, flow cytometry): 2.55%; Cell death (AnnV+PI) (Vero-E6 cells [8]; 72 h, EXP3, flow cytometry): 3%; Cell viability (MTT) (Vero-E6 cells [9]; 1 µM): 96%; toxicity in Vero-E6 (Vero-E6 cells [9]): devoid of toxicity; SARSCoV-2 virus titer at 1 μM (PFU mL^−1) on Calu-3 [10]: 0 PFU mL^−1; efficacy in reducing SARS-CoV-2 viral titers ([10]; pulmonary cells, 1 µM): 100% |
| SALEEQLKTFLDKFMHELEDLLYQLAL-NH2 [P8] | highly soluble | 46 | – | – | – | 70 | 2,45 min | 23 | 20 | 18 | 16 | 19 | 22 | 23 | 20 | 18 | no cytotoxicity | 5610 | 8.94e-05 | 4310 | koff [7, 21]: 0.000137 s⁻¹; Cell death (AnnV+PI) (Vero-E6 cells [8]; 24 h, EXP1, flow cytometry): 3.74%; Cell death (AnnV+PI) (Vero-E6 cells [8]; 24 h, EXP2, flow cytometry): 3.24%; Cell death (AnnV+PI) (Vero-E6 cells [8]; 24 h, EXP3, flow cytometry): 5%; Cell death (AnnV+PI) (Vero-E6 cells [8]; 48 h, EXP1, flow cytometry): 5.63%; Cell death (AnnV+PI) (Vero-E6 cells [8]; 48 h, EXP2, flow cytometry): 4.63%; Cell death (AnnV+PI) (Vero-E6 cells [8]; 48 h, EXP3, flow cytometry): 4.26%; Cell death (AnnV+PI) (Vero-E6 cells [8]; 72 h, EXP1, flow cytometry): 4%; Cell death (AnnV+PI) (Vero-E6 cells [8]; 72 h, EXP2, flow cytometry): 3%; Cell death (AnnV+PI) (Vero-E6 cells [8]; 72 h, EXP3, flow cytometry): 3.48%; Cell viability (MTT) (Vero-E6 cells [9]; 0.1 µM): 98%; toxicity in Vero-E6 (Vero-E6 cells [9]): devoid of toxicity; SARSCoV-2 virus titer at 1 μM (PFU mL^−1) on Calu-3 [10]: 0 PFU mL^−1 |
